# According to US20150265666A1, “BOTANICAL ANTIMICROBIAL COMPOSITIONS” (THE TRUSTEES OF COLUMBIA UNIVERSITY IN THE CITY OF NEW YORK, priority 2012, published 2015):
# Entries after “also recorded” stand apart in the source; their conditions may differ.
# What was measured:
# [1] = system: methicillin-resistant Staphylococcus aureus (“MRSA”); test: MRSA Rapid-Kill Assay (tube-dilution, US FDA-TFM, 15 second exposure); assay type: cell-based
# [2] = system: murine fibroblasts cell lines; conditions: cited from earlier work
# [3] = 0.12% solutions, oral decontamination prior to mechanical intubation; cited from earlier work
# S. aureus [4] = test: Rapid kill method (10^8 cfu/ml S. aureus), 15 seconds, oral rinse base; assay type: cell-based
# Procedure: Synergistic effect of botanical extracts and biguanides (Rapid kill method (108 S. aureus)): The antimicrobial effect of an oral rinse base, containing the ingredients described in table 10 below, were tested against a high concentration of bacteria. In a sterile culture tube, 0.1 ml of S. aureus (10^8 cfu/ml) was treated with 0.9 ml of test mouthrinse for 15 seconds. The reaction was stopped with Drug neutralizing Fluid (DNF) and then further diluted with the same media. 0.5 ml of the dilution was then plated on Tripticase Soy Agar (TSA) and incubated at 37° C. overnight. The colony counts were determined and the log 10 reduction from the control (phosphate-buffered saline (PBS) inoculated with the same culture) was calculated.
# [5] = use as oral antiseptic; cited from earlier work
# [6] = system: human dennal, gingival and osteoblastic cell lines; conditions: cited from earlier work
# S. aureus [7] = test: ASTM E 2783-11 protocol, 15 seconds, ingredients in Base A (Example 16); assay type: cell-based; conditions: for synergistic activity with chlorhexidine (in words): Experiment 1, Base A; for Log reduction compared to control: ingredients in Base A
# Procedure: The antimicrobial efficacy of a composition comprising biguanides and fennel oil, thyme oil/thymol and/or vanilla oil was tested against S. aureus (10^7 cfu/ml). […] In-vitro study Test organism: S. aureus (10^7 cfu/ml) […] These plates were incubated at 37° C. for 24 hours and the colony counts (cfu)/ml were determined.
# P. aeruginosa = test: Agar-plate method: sample spread on TSA, 1 hr, then inoculated; log10 reduction; assay type: cell-based; conditions: Example 3
# Procedure: For oral care products, PHMB is preferred because BAC can produce mucosal irritation. PHMB is effective against gram negative bacteria. Therefore P. aeruginosa which is a gram negative organism was used in these tests. An agar-plate method was used/0.5 ml of the test sample was spread on TSA plates and for control PBS was used in the plate. These plates were incubated for 1 hr in the incubator at temperature 37±1° C. After 1 hr, the plates were taken out of the incubator and inoculated with 0.5 ml of 1×10^3 cfu/ml culture of P. aeruginosa. The plates were incubated for 18-24 hrs at 37±1° C. The antibacterial activity was determined by calculating the difference in log 10 colony-forming units (cfu) between control and test samples (i.e., log 10 reduction).
# [8] = Experiment 2, S. aureus 10^7 cfu/ml, each 0.1 % w/w
# [9] = Experiment 1, S. aureus 10^7 cfu/ml, T, B, F, V each 0.1 % w/w, CHG 0.12 % w/w
compound,measurement,setting,value
benzalkonium chloride [BAC],"antibacterial activity, effect of combining actives (in words)","[1]; Example 1, actives in base formulation",enhanced the activity of essential oil mixtures containing thymol
same,"antibacterial activity, effect of combining actives (in words)",[1]; Example 4,enhances the activity of essential oils (CN+LG+T)
same,Log reduction from control growth,"[1]; Table 1, MRSA, conc. active agent 0.13 % w/w",0.05 log10
same,Log reduction from control growth,"[1]; Table 2, MRSA, conc. active agent 0.13 % w/w",0.05 log10
same,Log reduction from control growth,"[1]; Table 5A, MRSA, conc. active agent 0.6 % w/w",0.5 log10
[H]/N=C(\N/C(=N/[H])NCCCCCCNC(=N)NC(=N)Nc1ccc(Cl)cc1)Nc1ccc(Cl)cc1 [chlorhexidine],cytotoxicity,[2],cytotoxic
same,risk of acquiring VAP,[3],can reduce the risk of acquiring VAP
same,synergistic antibacterial activity of botanical extracts and biguanides (in words),S. aureus [4]; Example 10,did not show such synergism
same,adverse effects,[5],"irritation of the oral mucosa, discoloration of teeth and altered taste perception"
same,cytotoxicity,[6],cytotoxic
same,synergistic activity with chlorhexidine (in words),S. aureus [7]; 10^7 cfu/ml,"combination of either fennel seed oil and thymol or fennel seed oil, thymol and vanilla oil with chlorhexidine also exhibited synergistic activity"
same,synergistic activity with chlorhexidine (in words),"S. aureus [7]; 10^7 cfu/ml, listed as Chlorhexidine",exhibits synergistic activity when combined with either thymol or basil oil
pentanediol,"antibacterial activity, effect of combining actives (in words)",P. aeruginosa,enhanced the activity of low concentrations of essential oils and lemon extract
polyhexamethylene biguanide [PHMB],"antibacterial activity, effect of combining actives (in words)",P. aeruginosa,enhanced the activity of low concentrations of essential oils and lemon extract
same,synergistic activity with PHMB (in words),"S. aureus [7]; Experiment 2, Base A, 10^7 cfu/ml","exhibited synergistic activity when combined with either thymol or vanilla oil; also recorded: combination of either fennel seed oil and thymol or fennel seed oil, thymol and vanilla oil with PHMB also exhibited synergistic activity"
same,Log reduction compared to control,S. aureus [7]; [8],1.96 log
same,"antibacterial activity, effect of combining actives (in words)","[1]; Example 1, PHMB at 0.06%",showed synergistic activity with essential oils
same,Log reduction from control growth,"[1]; Table 1, MRSA, conc. active agent 0.012 % w/w",0.4 log10
same,Log reduction from control growth,"[1]; Table 1, MRSA, conc. active agent 0.06 % w/w",3.1 log10
same,Log reduction from control growth,"[1]; Table 2, MRSA, conc. active agent 0.012 % w/w",0.4 log10
same,Log reduction from control growth,"[1]; Table 5B, MRSA, conc. active agent 0.06 % w/w",4.0 log10
N=C(NCCCCCCNC(=N)NC(=N)Nc1ccc(Cl)cc1)NC(=N)Nc1ccc(Cl)cc1 [CHX (0.06%)],Log10 Growth,"S. aureus [4]; Table 10, in oral rinse base, control growth 7.29",5.60 log10
same,Log10 Reduction,"S. aureus [4]; Table 10, in oral rinse base, reduction from control (PBS)",1.69 log10
[H]/N=C(\N/C(=N/[H])NCCCCCCNC(=N)NC(=N)Nc1ccc(Cl)cc1)Nc1ccc(Cl)cc1 [Chlorhexidine (CHG)],Log reduction compared to control,S. aureus [7]; [9],0.73 log
Cc1ccc(C(C)C)c(O)c1 [T (Thymol)],Log reduction compared to control,S. aureus [7]; [9],1.29 log
same,Log reduction compared to control,S. aureus [7]; [8],1.29 log
